Results as given in US20090118331A1, “Use of Lobeline Epimers in the Treatment of Central Nervous System Diseases, Pathologies, and Drug Abuse” (priority 2007, published 2009).

What was measured:
[1] = Lobeline conversion to epimer in deionized water (HPLC); format: physicochemical
Procedure: Extensive in vitro studies on the epimerization of lobeline were conducted in a variety of aqueous media. […] The concentration of the lobeline solution (500 mL) was ca. 0.5 mg/mL, and 1.5 mL aliquot parts were removed in triplicate at each time point and analyzed by HPLC. Corresponding pH measurements were performed with a Coming Model 240 pH meter.

[2] = Lobeline conversion to epimer in the HEPES buffer system used at 25° C. in the [^3H]DTBZ binding study (HPLC); format: physicochemical; details: for Epimer %: [^3H]DTBZ binding buffer, 25° C.
Procedure: The initial dissolution of lobeline in water was followed by a 1:1 dilution of this stock solution in the appropriate HEPES buffer system, incubation at the prescribed temperature, and HPLC assay of each epimer and potential degradants over 2 hour incubation.
After 2 hours, the 25° C.

[3] = Lobeline conversion to epimer in the buffer system used at 37° C. in the VMAT2 uptake study (HPLC); format: physicochemical; details: for Epimer %: VMAT2 uptake buffer, 37° C.
in vivo = details: female, rat, in vivo, iv, 2 mg/kg
Procedure: Here, serial doses of lobeline were administered to male and female rats intravenously, subcutaneously or orally, and the pharmacokinetic profiles of the parent lobeline and its epimer were monitored in plasma.

## CN1[C@H](CC(=O)c2ccccc2)CCC[C@H]1C[C@H](O)c1ccccc1 (single isomer, unassigned; epimer 2) [Epimer, 2-[6S-(2S-hydroxy-2-phenyl-ethyl)-1-methyl-piperidin-2S-yl]-1-phenyl-ethanone]
[1]; Solution 1 (Lobeline in “fresh” DI Water), time 0, pH 6.02
  % Epimer (Mean ± SD): 0.83%
[1]; Solution 1 (“fresh” DI Water), 15 min, pH 6.03-6.24
  % Epimer (Mean ± SD): 0.83 ± 0.054%
[1]; Solution 1 (“fresh” DI Water), 30 min, pH 6.02-6.24
  % Epimer (Mean ± SD): 0.99 ± 0.164%
[1]; Solution 1 (“fresh” DI Water), 45 min, pH 6.13-6.37
  % Epimer (Mean ± SD): 0.95 ± 0.144%
[1]; Solution 1 (“fresh” DI Water), 1 h, pH 6.26-6.52
  % Epimer (Mean ± SD): 1.00 ± 0.196%
[1]; Solution 1 (“fresh” DI Water), 80 min, pH 6.19-6.50
  % Epimer (Mean ± SD): 1.46 ± 0.112%
[1]; Solution 1 (“fresh” DI Water), 100 min, pH 6.16-6.50
  % Epimer (Mean ± SD): 1.50 ± 0.139%
[1]; Solution 1 (“fresh” DI Water), 2 h, pH 5.63-5.88
  % Epimer (Mean ± SD): 1.58 ± 0.599%
[1]; Solution 2 (Lobeline in “8-h” DI Water), time 0, pH 7.87
  % Epimer (Mean ± SD): 1.03%
[1]; Solution 2 (“8-h” DI Water), 15 min, pH 7.78-8.21
  % Epimer (Mean ± SD): 0.66 ± 0.273%
[1]; Solution 2 (“8-h” DI Water), 30 min, pH 7.58-7.85
  % Epimer (Mean ± SD): 0.52 ± 0.214%
[1]; Solution 2 (“8-h” DI Water), 45 min, pH 7.66-7.68
  % Epimer (Mean ± SD): 0.65 ± 0.056%
[1]; Solution 2 (“8-h” DI Water), 1 h, pH 6.84-7.11
  % Epimer (Mean ± SD): 0.80 ± 0.087%
[1]; Solution 2 (“8-h” DI Water), 80 min, pH 6.53-6.79
  % Epimer (Mean ± SD): 0.90 ± 0.150%
[1]; Solution 2 (“8-h” DI Water), 100 min, pH 6.24-6.51
  % Epimer (Mean ± SD): 1.01 ± 0.207%
[1]; Solution 2 (“8-h” DI Water), 2 h, pH 6.21-6.49
  % Epimer (Mean ± SD): 1.22 ± 0.257%
[1]; in vitro with water at pH 7
  ratio of epimer to lobeline obtained in vitro: approximately 0.5
[1]; lobeline dissolved in deionized water, over a 2-h period at 25° C.
  change in epimer concentration: < 1%
[2]; HEPES [^3H]DTBZ binding buffer, after 2 hours at 25° C.
  final component concentration (as a function of the area under the curve): 17%
[2]; T0, sample age 0:01
  Epimer %: 1.54%
[2]; T5, sample age 0:06
  Epimer %: 2.16%
[2]; T10, sample age 0:10
  Epimer %: 3.34%
[2]; T15, sample age 0:15
  Epimer %: 4.55%
[2]; T20, sample age 0:20
  Epimer %: 5.27%
[2]; T25, sample age 0:25
  Epimer %: 5.91%
[2]; T30, sample age 0:31
  Epimer %: 7.18%
[2]; T35, sample age 0:35
  Epimer %: 7.30%
[2]; T40, sample age 0:40
  Epimer %: 8.66%
[2]; T45, sample age 0:45
  Epimer %: 9.31%
[2]; T50, sample age 0:50
  Epimer %: 9.94%
[2]; T55, sample age 0:55
  Epimer %: 10.2%
[2]; T60, sample age 1:00
  Epimer %: 10.9%
[2]; T70, sample age 1:10
  Epimer %: 11.9%
[2]; T80, sample age 1:20
  Epimer %: 13.1%
[2]; T90, sample age 1:31
  Epimer %: 14.1%
[2]; T100, sample age 1:40
  Epimer %: 15.2%
[2]; T110, sample age 1:50
  Epimer %: 16.1%
[2]; T120, sample age 2:01
  Epimer %: 17.0%
[3]; 37° C. uptake buffer with ATP-Mg2+ cofactor reduced from 2 mM to 0.4 mM, after 2 hours, with impurity
  component content of solution: 33%
[3]; VMAT2 uptake buffer (HEPES), 2 hour incubation at 37° C.
  final component concentration (as a function of the area under the curve): 30%
[3]; T0, sample age 0:01
  Epimer %: 1.76%
[3]; T5, sample age 0:05
  Epimer %: 3.34%
[3]; T10, sample age 0:10
  Epimer %: 5.47%
[3]; T15, sample age 0:15
  Epimer %: 8.62%
[3]; T25, sample age 0:25
  Epimer %: 13.2%
[3]; T30, sample age 0:30
  Epimer %: 14.9%
[3]; T35, sample age 0:35
  Epimer %: 16.2%
[3]; T40, sample age 0:40
  Epimer %: 17.7%
[3]; T45, sample age 0:45
  Epimer %: 18.9%
[3]; T50, sample age 0:50
  Epimer %: 20.1%
[3]; T55, sample age 0:55
  Epimer %: 21.0%
[3]; T60, sample age 1:00
  Epimer %: 22.1%
[3]; T70, sample age 1:10
  Epimer %: 24.3%
[3]; T80, sample age 1:20
  Epimer %: 26.1%
[3]; T90, sample age 1:31
  Epimer %: 26.9%
[3]; T100, sample age 1:40
  Epimer %: 28.0%
[3]; T110, sample age 1:50
  Epimer %: 29.2%
[3]; T120, sample age 2:00
  Epimer %: 30.3%
In vivo
  AUC(0-inf): 76.9 ng·h/mL
  AUC(0-t): 75.4 ng·h/mL
  Cmax: 53.9 ng/mL
  MRT last: 1.6 h
  Tmax: 0.25 h
  Vd: 45.9 L/kg
  clearance: 0.433 mL/min/kg
  half-life: 1.47 h
